# Experimental data from US12421254B2, “KRAS modulators and uses thereof” (Quanta Therapeutics, Inc., priority 2023, dated 2025).
# Assays:
# phospho-ERK in AGS cells = assay: pERK In Cell Western (ICW) assay (Method B), AGS; type: cell-based; conditions: Homo sapiens, Table 2, 3 hours
# Experimental: pERK ICW is a high throughput screening assay to evaluate the cellular potency of mutant KRAS small molecule inhibitors. KRAS mutant cell lines AGS, GP2D (KRAS-G12D) as well as SW620 (KRAS-G12V) were purchased from ATCC and maintained respectively in RPMI/DMEM/RPMI medium supplemented with 10% fetal bovine serum.
# Cells grown in exponential phase were trypsinized, resuspended in fresh media, and viable cells were counted using a cell counter with Trypan Blue (BioRad TC20). Cells were seeded into 384-well plate (Greiner 781091) at density of 5,000 cells/well for AGS and 10,000 cells/well for GP2D/SW620 and allowed to grow overnight in a 37° C. CO2 incubator. The next day, compounds were dispensed into wells with a ½ log, 9-point serial dilution using a Tecan D300e dispenser and incubated for 3 hours in a 37° C. CO2 incubator. Cells were then fixed with paraformaldehyde (Electron Microscopy Sciences, 15710, 4% final concentration) for 30 min, permeabilized with wash buffer (1×PBS+0.1% Triton X-100) for 30 min and blocked with Odyssey blocking buffer (Li—COR 927-70001) for 1 hour, all at room temperature (RT). Phospho-ERK antibody (CST 4370L) was diluted 1:500 in Odyssey T20 (PBS) antibody diluent (Li—COR 927-75001) and incubated with cells overnight at 4° C. The next day, plates were washed 5× with wash buffer, incubated with IRDye 800 CW, Goat anti-Rabbit secondary antibody (Li—COR 926-32211, 1:800) and DRAQ5 (CST 4084L, 1:5,000) diluted in Odyssey T20 (PBS) antibody diluent for 1 hour, washed 5×, and imaged on an Odyssey CLx imaging system.
# For data analysis, signal intensities from 800 (phosphor-ERK) and 700 (DRAQ5) channels were extracted, and phospho-ERK signals were normalized to DRAQ5 signals for each well and percent of blank control values were computed. Data were then imported into Graphpad Prism to compute half-maximal inhibitory concentrations (IC50) using a 4-parameter variable slope model. Z-factor for each plate was computed from signals derived from wells treated with either DMSO or 5 μM of control compound. AGS pERK ICW (Method B) IC50 (uM) values of selected compounds are depicted in Table 2 with compounds having a value ≥0.001 uM to 0.01 uM as ++++; ≥0.01 uM to 0.1 uM as +++; ≥0.1 uM to 1 uM as ++; ≥1 uM to 10 uM as + and ≥10 uM as NA.
# [1] = system: phospho-ERK in SW620 (KRAS-G12V) cells; assay: pERK In Cell Western (ICW) assay (Method B), SW620; type: cell-based; conditions: Homo sapiens, SW-620, 3 h, Table 4
# Outline: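 After overnight attachment, cells received nine half-log compound concentrations for 3 hours, were fixed, permeabilized and probed with phospho-ERK antibody plus DRAQ5. Normalized pERK signal versus blank control yields IC50 via variable-slope four-parameter fit.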
compound,measurement,setting,value
"N#Cc1c(N)sc2c1C1(CC2)CN(c2nc(OCC34CCCN3CC(F)C4)nc(N3CC4CCC(C3)N4)n2)C1 [Compound 1, 2-amino-1′-[4-(3,8-diazabicyclo[3.2.1]octan-3-yl)-6-[[(2R,8S)-2-fluoro-1,2,3,5,6,7-hexahydropyrrolizin-8-yl]methoxy]-1,3,5-triazin-2-yl]spiro[5,6-dihydrocyclopenta[b]thiophene-4,3′-azetidine]-3-carbonitrile]",IC50,phospho-ERK in AGS cells,0.1 to 1 µM
"N#Cc1c(N)sc2c1C1(CC2)CN(c2nc(OCC3(CN4CCOCC4)CC3)nc(N3C[C@H]4CC[C@@H](C3)N4)n2)C1 [Compound 2, 2-amino-1′-[4-[[1-(morpholinomethyl)cyclopropyl]methoxy]-6-[(1R,5S)-3,8-diazabicyclo[3.2.1]octan-3-yl]-1,3,5-triazin-2-yl]spiro[5,6-dihydrocyclopenta[b]thiophene-4,3′-azetidine]-3-carbonitrile]",IC50,phospho-ERK in AGS cells,0.1 to 1 µM
"N#Cc1c(N)sc2c1C1(CCC2)CN(c2nc(OCC3(CN4CCOCC4)CC3)nc(N3C[C@H]4CC[C@@H](C3)N4)n2)C1 [Compound 3, 2-amino-1′-[4-[(1R,5S)-3,8-diazabicyclo[3.2.1]octan-3-yl]-6-[[1-(morpholinomethyl)cyclopropyl]methoxy]-1,3,5-triazin-2-yl]spiro[6,7-dihydro-5H-benzothiophene-4,3′-azetidine]-3-carbonitrile]",IC50,phospho-ERK in AGS cells,0.1 to 1 µM
"N#Cc1c(N)sc2c1C1(CC2)CN(c2nc(OCC3(CN4CCOCC4)CC3)nc(N3CCCC4(C3)NC(=O)NC4=O)n2)C1 (centres unmarked) [Compound 7, 2-amino-1′-[4-(2,4-dioxo-1,3,9-triazaspiro[4.5]decan-9-yl)-6-[[1-(morpholinomethyl)cyclopropyl]methoxy]-1,3,5-triazin-2-yl]spiro[5,6-dihydrocyclopenta[b]thiophene-4,3′-azetidine]-3-carbonitrile]",IC50,[1],1000 to 20000 nM
"C[C@@]1(O)CCCN(c2nc(OC[C@@]34CCCN3C[C@H](F)C4)nc(N3CC4(CCc5sc(N)c(C#N)c54)C3)n2)C1 [Compound 10, 2-amino-1′-[4-[[(2R,8S)-2-fluoro-1,2,3,5,6,7-hexahydropyrrolizin-8-yl]methoxy]-6-[(3R)-3-hydroxy-3-methyl-1-piperidyl]-1,3,5-triazin-2-yl]spiro[5,6-dihydrocyclopenta[b]thiophene-4,3′-azetidine]-3-carbonitrile]",IC50,[1],100 to 1000 nM
same,IC50,phospho-ERK in AGS cells,0.1 to 1 µM
"N#Cc1c(N)sc2c1C1(CC2)CN(c2nc(OC[C@@]34CCCN3C[C@H](F)C4)nc(N3CCCC(C#N)C3)n2)C1 (stereo partly drawn) [Compound 13, 2-amino-1′-[4-(3-cyano-1-piperidyl)-6-[[(2R,8S)-2-fluoro-1,2,3,5,6,7-hexahydropyrrolizin-8-yl]methoxy]-1,3,5-triazin-2-yl]spiro[5,6-dihydrocyclopenta[b]thiophene-4,3′-azetidine]-3-carbonitrile]",IC50,[1],100 to 1000 nM
same,IC50,phospho-ERK in AGS cells,1 to 10 µM
